Reference: PubChem BioAssay AID330 (DTP/NCI, 2004)
Where “and” joins values, the source holds several entries; their conditions need not be identical. Equal entries are not always repeated. Inconclusive results and toxic doses are left out.

System: P388 leukemia ip, CD2F1 mice, survival T/C
Experiment: NCI In Vivo Anticancer Drug Screen. Data for tumor model P388 Leukemia (intraperitoneal) in CD2F1 (CDF1) mice
Settings: endpoint: median survival time, higher = longer survival
Method in brief: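 Mice carrying the transplanted tumor received test compound or vehicle. Survival was recorded in each group, and the value is the treated-group measurement divided by that of the vehicle-treated control group.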

[1] = dose: 15.0 mg/kg/injection, schedule: Q01DX005 (ip), vehicle: Klucel (hydroxypropylcellulose) (HPC)
[2] = dose: 30.0 mg/kg/injection, schedule: Q01DX005 (ip), vehicle: Klucel (hydroxypropylcellulose) (HPC)
[3] = dose: 12.5 mg/kg/injection, schedule: Q04DX002 (ip), vehicle: saline with Tween-80
[4] = dose: 25.0 mg/kg/injection, schedule: Q04DX002 (ip), vehicle: saline with Tween-80
[5] = dose: 50.0 mg/kg/injection, schedule: Q01DX005 (ip), vehicle: Klucel (hydroxypropylcellulose) (HPC)
[6] = dose: 100.0 mg/kg/injection, schedule: Q01DX005 (ip), vehicle: Klucel (hydroxypropylcellulose) (HPC)
[7] = dose: 200.0 mg/kg/injection, schedule: Q01DX005 (ip), vehicle: Klucel (hydroxypropylcellulose) (HPC)
[8] = dose: 12.5 mg/kg/injection, schedule: Q01DX009 (ip), vehicle: saline
[9] = dose: 25.0 mg/kg/injection, schedule: Q01DX009 (ip), vehicle: saline

With COc1cccc2c1C(=O)c1c(O)c3c(c(O)c1C2=O)C[C@@](O)(c1csc(N2CCN(C)CC2)n1)C[C@@H]3OC1CC(N)C(O)C(C)O1 (stereo not given in full) the T/C (dose: 0.39 mg/kg/injection, schedule: Q01DX009 (ip), vehicle: water) was 113 % of control, the T/C (dose: 0.78 mg/kg/injection, schedule: Q01DX009 (ip), vehicle: water) was 122 % of control and the T/C (dose: 1.56 mg/kg/injection, schedule: Q01DX009 (ip), vehicle: water) was 155 % of control. For the same compound, the T/C (dose: 3.13 mg/kg/injection, schedule: Q01DX009 (ip), vehicle: water) was 158 % of control and the T/C (dose: 12.5 mg/kg/injection, schedule: Q01DX009 (ip), vehicle: water) was 122 % of control.
For CC(=O)OC(=O)c1c(OC(C)=O)cc(C)c2c1CC(C1(C)CO1)CC2 (stereo not given), the T/C (dose: 1.88 mg/kg/injection, schedule: Q01DX005 (ip), vehicle: Klucel (hydroxypropylcellulose) (HPC)) was 100 % of control, the T/C (dose: 3.75 mg/kg/injection, schedule: Q01DX005 (ip), vehicle: Klucel (hydroxypropylcellulose) (HPC)) was 99 % of control and the T/C (dose: 7.5 mg/kg/injection, schedule: Q01DX005 (ip), vehicle: Klucel (hydroxypropylcellulose) (HPC)) was 100 % of control. For the same compound, the T/C [1] was 100 % of control and the T/C [2] was 101 % of control.
For COc1cc(OC)c(NC(=O)C2=C(C)NC(C)=C(C(=O)Nc3cc(Cl)c(OC)cc3OC)C2c2cccc([N+](=O)[O-])c2)cc1Cl, the T/C [1] was 101 % of control, the T/C [2] was 100 % of control and the T/C (dose: 60.0 mg/kg/injection, schedule: Q01DX005 (ip), vehicle: Klucel (hydroxypropylcellulose) (HPC)) was 101 % of control and 93 % of control.
Cc1c2ccncc2c(CN2C(=O)c3ccccc3C2=O)c2c3ccccc3n(C)c12 was tested, and the T/C [3] was 102 % of control, the T/C [4] was 100 % of control and the T/C (dose: 50.0 mg/kg/injection, schedule: Q04DX002 (ip), vehicle: saline with Tween-80) was 98 % of control. The T/C (dose: 100.0 mg/kg/injection, schedule: Q04DX002 (ip), vehicle: saline with Tween-80) was 95 % of control.
For NC(=S)SCCC(=O)N1CCCC1, the T/C (dose: 25.0 mg/kg/injection, schedule: Q01DX005 (ip), vehicle: Klucel (hydroxypropylcellulose) (HPC)) was 103 % of control, the T/C [5] was 97 % of control and the T/C [6] was 99 % of control. The T/C [7] was 101 % of control.
With C1CNC(N2CCN(C3=NCCN3)CC2)=N1 the T/C [5] was 104 % of control and the T/C [6] was 100 % of control.
In the case of CCOC(=O)N1CCN(C(=O)c2nc3ccccc3[nH]2)CC1, the T/C [5] is reported as 99 % of control, the T/C [6] is reported as 101 % of control and the T/C [7] is reported as 95 % of control.
With C=CCNSc1ccccc1 the T/C (dose: 12.5 mg/kg/injection, schedule: Q01DX009 (ip), vehicle: Klucel (hydroxypropylcellulose) (HPC)) was 112 % of control and the T/C (dose: 25.0 mg/kg/injection, schedule: Q01DX009 (ip), vehicle: Klucel (hydroxypropylcellulose) (HPC)) was 109 % of control.
In the case of COc1ccc(-n2c(CSc3ccc(Cl)cc3)n[nH]c2=S)cc1, the T/C (dose: 60.0 mg/kg/injection, schedule: Q01DX005 (ip), vehicle: saline with Tween-80) is reported as 104 % of control, the T/C (dose: 120.0 mg/kg/injection, schedule: Q01DX005 (ip), vehicle: saline with Tween-80) is reported as 96 % of control and the T/C (dose: 240.0 mg/kg/injection, schedule: Q01DX005 (ip), vehicle: saline with Tween-80) is reported as 95 % of control.
In the case of CC(CNC(=O)CCBr)NC(=O)CCBr (stereo not given), the T/C [8] is reported as 105 % of control, the T/C [9] is reported as 116 % of control and the T/C (dose: 400.0 mg/kg/injection, schedule: Q01DX009 (ip), vehicle: suspension in saline) is reported as 116 % of control.
For CC1OC(n2ccc(NC(=O)c3ccc(NC(=O)C(C)(N)CO)cc3)nc2=O)CCC1OC1OC(C)C(N(C)C)C(O)C1O (stereo not given), the T/C (dose: 100.0 mg/kg/injection, schedule: Q04DX003 (ip), vehicle: saline with Tween-80) was 100 % of control, the T/C (dose: 200.0 mg/kg/injection, schedule: Q04DX003 (ip), vehicle: saline with Tween-80) was 100 % of control and the T/C (dose: 400.0 mg/kg/injection, schedule: Q04DX003 (ip), vehicle: saline with Tween-80) was 109 % of control.
CCC(=O)NC(CC(=O)O)c1cccs1 (stereo not given) was tested, and the T/C [8] was 102 % of control, the T/C [9] was 104 % of control and the T/C (dose: 50.0 mg/kg/injection, schedule: Q01DX009 (ip), vehicle: saline) was 107 % of control. The T/C (dose: 100.0 mg/kg/injection, schedule: Q01DX009 (ip), vehicle: saline) was 90 % of control and the T/C (dose: 200.0 mg/kg/injection, schedule: Q01DX009 (ip), vehicle: saline) was 93 % of control.
In the case of CN=C(N)NN=C(c1ccc(Cl)cc1)c1ccc(Cl)cc1, the T/C (dose: 6.25 mg/kg/injection, schedule: Q04DX002 (ip), vehicle: saline with Tween-80) is reported as 101 % of control, the T/C [3] is reported as 102 % of control and the T/C [4] is reported as 158 % of control.
